This data set is described as follows: photoluminescence quantum yield (fraction); solvent given as SMILES.

On to `CC(C)(C)c1ccc(-c2ccc(C(C)(C)C)cc2)cc1`, for which the photoluminescence quantum yield (in C1CCCCC1) was 0.26.
Turning to `COc1cc(OC)cc(C2=C3C(C)=C(I)C(/C=C/c4ccsc4)=[N+]3[B-](F)(F)n3c(/C=C/c4ccsc4)c(I)c(C)c32)c1`, the photoluminescence quantum yield worked out at 0.01 (in C1CCOC1), 0.01 (in CS(C)=O) and 0.02 (in ClCCl).
Where the note is “in ClCCl”, `CC1(C)c2ccccc2N(c2ccc(-c3nc(-c4ccccn4)n(-c4ccccc4)n3)cc2)c2ccccc21` showed a photoluminescence quantum yield of 0.0612.
Regarding `CCOC(=O)CN(CC(=O)OCC)c1ccc(-c2cc(-c3ccncc3)nc(-c3ccncc3)c2)cc1`, the photoluminescence quantum yield is, setting by setting: (in CC#N) 0.3; (in CCOC(C)=O) 0.48; (in CN(C)C=O) 0.2; (in CS(C)=O) 0.23; (in c1ccccc1) 0.5.
The compound `CCCCCCCCCCCCc1ccc(-c2cc(C)[o+]c(C)c2)cc1` gave a photoluminescence quantum yield (in CC#N) of 0.36 and a photoluminescence quantum yield (in ClCCl) of 0.37.
In the case of `O=C1c2ccccc2C2=C(c3ccccn3)NN=C(c3ccccn3)C2c2ccccc21` (stereo not given), where the note is “in CC#N”, the photoluminescence quantum yield is 0.41.
With `O=C1c2cccc3c(-n4c5ccccc5c5ccccc54)ccc(c23)C(=O)N1C1CCCCC1`, the photoluminescence quantum yield reads like this: (in C1CCOC1) 0.033; (in CCCCCC) 0.872; (in ClC(Cl)Cl) 0.21; (in ClCCl) 0.03.
`c1ccc2c(c1)sc1c3ccccc3c3ncncc3c21` displayed a photoluminescence quantum yield (in ClCCl) of 0.08.
On to `CN(C)c1ccc(/C=C/c2ccc([N+](=O)[O-])c(O)c2)cc1`, for which the photoluminescence quantum yield reads like this: (in C1CCCCC1) 0.11; (in C1COCCO1) 0.02; (in CCCCCCC) 0.09; (in Cc1ccccc1) 0.09.
With `Brc1cnc(-c2ccc(N(c3ccccc3)c3ccccc3)cc2)s1`, the photoluminescence quantum yield (in CO) was determined as 0.04.
As for `O=C1c2ccccc2-c2nc3ccccc3n21`, under “in ClCCl”, the photoluminescence quantum yield came to 0.04.
For `CC[N+]1(CC)CN2C(=N1)C(C(=O)O)=Cc1ccccc12`, the photoluminescence quantum yield runs as follows: (in CN(C)C=O) 0.006; (in O) 0.531.
As for `CN(C)c1ccc(N2c3sc4ccccc4c3Sc3c2sc2ccccc32)cc1`, the photoluminescence quantum yield (in ClCCl) stood at 0.19.
For `COc1ccc(C2=[N+]3C(=Nc4c5c6ccccc6c6ccc(C(C)(C)C)cc6c5c(-c5ccc(OC)cc5)n4[B-]3(F)F)c3c2c2cc(C(C)(C)C)ccc2c2ccccc32)cc1`, the photoluminescence quantum yield (in Cc1ccccc1) was determined as 0.32.
Consider `O=C(O)c1ccccc1`, for which the photoluminescence quantum yield (in O) was 0.001.
As for `COc1ccc2c(c1)sc1[n+]2[B-](F)(F)OC(c2ccc(N(C)C)cc2)=N1`, the photoluminescence quantum yield by setting is: (in C1CCOC1) 0.8; (in CC#N) 0.38; (in CC(C)=O) 0.56; (in Cc1ccccc1) 0.88; (in ClCCl) 0.83.
`CCC1=C(C)C2=Cc3cc4c(cc3B(O)N2C1=O)OCO4`: the photoluminescence quantum yield by setting is: (in CC#N) 0.57; (in CO) 0.3; (in CS(C)=O) 0.8; (in ClC(Cl)Cl) 0.61.
For `Oc1ccccc1-c1nc2c3ccccc3c3ccccc3c2n1-c1ccccc1`, the photoluminescence quantum yield (in Cc1ccccc1) turned out to be 0.001.
Take `CC(C)[Si](C#Cc1c2ccccc2c(C#C[Si](C(C)C)(C(C)C)C(C)C)c2nc3c(nc12)Cc1ccccc1-3)(C(C)C)C(C)C`: under “in CCCCCC”, the photoluminescence quantum yield turned out to be 0.47.
Turning to `COc1ccc(-c2cc3c(ccc4sccc43)s2)cc1`, the photoluminescence quantum yield (in ClCCl) is 0.55.
Same read-out and setting: the same measure for `COc1ccccc1C1=[N+]2C(=Cc3c4c(c(-c5ccccc5OC)n3[B-]2(F)F)C2CCC4CC2)C2=C1C1CCC2CC1`: 0.77.
Regarding `CCCCCCCCCCOc1ccc(C#Cc2ccc(C#Cc3ccc(OCCCCCCCCCC)c(OCCCCCCCCCC)c3)c3nc4c5ccccc5c5ccccc5c4nc23)cc1OCCCCCCCCCC`, the photoluminescence quantum yield came to 0.23 (in C1CCOC1), 0.24 (in Cc1ccccc1) and 0.22 (in ClCCl).
Take `COc1c2ccccc2c(OC)c2c1c1ccc(C)cc1n2C`: the photoluminescence quantum yield is, setting by setting: (in C1CCCCC1) 0.4; (in CC#N) 0.42; (in CO) 0.34; (in ClCCl) 0.57.
In the case of `CC1(C)CCc2c(c3ccccc3c3nc4c(nc23)c2c(c3ccccc34)OC(C)(C)CC2)O1`, the photoluminescence quantum yield reads like this: (in C1CCCCC1) 0.33; (in C1COCCO1) 0.47; (in CC#N) 0.28; (in CC(C)O) 0.4; (in CCCCCC) 0.37; (in ClC(Cl)Cl) 0.42. This compound also came in with a photoluminescence quantum yield (in c1ccccc1) of 0.29.
For the setting “in C1COCCO1”, `COC(=O)c1ccc(/C=C2\C=C(c3ccc(C#N)cc3)N(CC(C)C)C2=O)cc1` came in with a photoluminescence quantum yield of 0.192.
`CC(C)[Si](C#Cc1c2cc3ccccc3cc2c(C#C[Si](C(C)C)(C(C)C)C(C)C)c2nc3c(nc12)C1c2ccccc2C3c2ccccc21)(C(C)C)C(C)C`: the photoluminescence quantum yield (in CCCCCC) turned out to be 0.54.
Compound `COc1cc(C2=c3c(c4ccc(C(C)(C)C)cc4c4cc(C(C)(C)C)ccc34)=[N+]3C2=Nc2c(-c4cc(OC)c(OC)c(OC)c4)c4c5ccc(C(C)(C)C)cc5c5cc(C(C)(C)C)ccc5c4n2[B-]3(F)F)cc(OC)c1OC` returned a photoluminescence quantum yield (in Cc1ccccc1) of 0.01.
Take `c1ccc(N(c2ccccc2)c2ccc(-c3ccc4c(c3)C3(c5cc(-c6ccc(N(c7ccccc7)c7ccccc7)cc6)ccc5O4)c4ccccc4-c4ccccc43)cc2)cc1`: the photoluminescence quantum yield is 0.47 (in ClCCl) and 0.45 (in c1cc(-n2c3ccccc3c3ccccc32)cc(-n2c3ccccc3c3ccccc32)c1).
Turning to `Nc1nc(/C=C/c2ccc(N(c3ccccc3)c3ccccc3)cc2)cc(/C=C/c2ccc(N(c3ccccc3)c3ccccc3)cc2)n1`, the photoluminescence quantum yield is, setting by setting: (in Cc1ccccc1) 0.88; (in ClC(Cl)Cl) 0.73.
`C[N+]1=C(/C=C/C=C2/N(CCC[N+](C)(C)C)c3ccc(S(=O)(=O)[O-])cc3C2(C)C)C(C)(C)c2ccccc21` came in with a photoluminescence quantum yield (in CS(C)=O) of 0.1.
Consider `CN1c2cc3nc4cc(Cl)c(Cl)cc4nc3cc2N(C)C1(C)C`, for which the photoluminescence quantum yield (in CCO) was 0.7.
As to `c1ccc2c(c1)[nH]c1cccnc12`, the photoluminescence quantum yield by setting is: (in C1CCCCC1) 0.145; (in C1CCOC1) 0.081; (in C1COCCO1) 0.122; (in CCO) 0.129; (in CN(C)C=O) 0.079; (in Cc1ccccc1) 0.099. Also, the photoluminescence quantum yield runs as follows: (in ClC(Cl)Cl) 0.124; (in Clc1ccccc1) 0.119.
For `Cc1cccc(C)c1Nc1ccc(/C=C/c2ccccc2)cc1`, the photoluminescence quantum yield runs as follows: (in CC#N) 0.04; (in CCCCCC) 0.11.
For `N#Cc1c2oc3ccccc3oc2c(C#N)c2oc3ccccc3oc12`, the photoluminescence quantum yield (in ClC(Cl)Cl) amounted to 0.78.
Under “in CN(C)C=O”, `Cc1ccc2nc(-c3cccc4nc(C)[nH]c(=O)c34)oc2c1` registered a photoluminescence quantum yield of 0.076.
For `O=C(O)CC[N+]1=c2cc3c(cc2CCC1)=Cc1c(c2cc4c5c(c2oc1=O)CCCN5CCC4)O3`, the photoluminescence quantum yield is 0.025 (in CC#N), 0.013 (in CO), 0.163 (in ClCCl) and 0.003 (in O).
With `C(=C\c1ccc(N(c2ccccc2)c2ccccc2)cc1)/c1ccc(/C=C/c2ccc(N(c3ccccc3)c3ccccc3)cc2)cc1`, the photoluminescence quantum yield (in Cc1ccccc1) was determined as 0.82.
As to `CN(C)c1ccc(-c2cc(-c3ccc(C#N)cc3)nc(-c3ccccc3)n2)cc1`, the photoluminescence quantum yield (in ClC(Cl)Cl) turned out to be 0.44.
Where the note is “in C1CCOC1”, `F[Si](c1ccccc1)(c1ccccc1)c1cccc2ccccc12` yielded a photoluminescence quantum yield of 0.14.
With `CCCCCCCCC1(CCCCCCCC)c2cc(-c3ccc([Si](C)(C)C)cc3)ccc2-c2ccc(-c3ccc([Si](C)(C)C)cc3)cc21`, the photoluminescence quantum yield (in ClC(Cl)Cl) was found to be 0.89.
For `CCCCCCCCCCCCN1C(=O)c2cccc3c(N(Cc4ccccn4)Cc4ccccn4)c4ccccc4c(c23)C1=O`, the photoluminescence quantum yield (in C1CCOC1) was determined as 0.07; the photoluminescence quantum yield (in CCCCCC) is 0.06; the photoluminescence quantum yield (in CCO) was 0.1; the photoluminescence quantum yield (in Cc1ccccc1) was 0.06; the photoluminescence quantum yield (in ClCCl) was found to be 0.12.
Regarding `CC1(C)c2ccccc2N(c2ccc(-c3nc(-c4ccccn4)n(-c4ccc(N5c6ccccc6C(C)(C)c6ccccc65)cc4)n3)cc2)c2ccccc21`, where the note is “in ClCCl”, the photoluminescence quantum yield is 0.0876.
With `O=Cc1ccc(C#CC(C#Cc2ccc(C=O)o2)=Cc2ccc(C=C(C#Cc3ccc(C=O)o3)C#Cc3ccc(C=O)o3)s2)o1`, the photoluminescence quantum yield (in ClC(Cl)Cl) worked out at 0.01.
With `O=C1c2ccc3c4ccc5c6c(ccc(c7ccc(c2c37)C(=O)N1c1ccncc1)c64)C(=O)N(c1ccncc1)C5=O`, the photoluminescence quantum yield is 0.508 (in C1CCOC1); 0.847 (in C1COCCO1); 0.758 (in CC(C)=O); 0.454 (in CC(C)O); 0.46 (in CCCCO); 0.201 (in CCO). The photoluminescence quantum yield by setting is: (in CCOC(C)=O) 0.337; (in CN(C)C=O) 0.438; (in CO) 0.206; (in CS(C)=O) 0.057; (in ClC(Cl)(Cl)Cl) 0.97; (in ClC(Cl)Cl) 0.97.
Where the note is “in C1CCOC1”, `CC(C)(C)c1ccc2c(c1)c1cc(C(C)(C)C)cc3c1n2B1c2c-3cccc2-c2cc(C(C)(C)C)cc3c4cc(C(C)(C)C)ccc4n1c23` yielded a photoluminescence quantum yield of 0.63.
For the compound `Cc1ccc(C2=C3C=CC(C#Cc4ccccc4)=[N+]3[B-](F)(F)n3c(Cl)ccc32)cc1`, the photoluminescence quantum yield amounted to 1 (in C1CCCCC1); 0.84 (in C1CCOC1); 0.97 (in C1COCCO1); 0.83 (in CCOC(C)=O); 0.98 (in CO); 0.91 (in Cc1ccccc1). Besides, the photoluminescence quantum yield (in ClC(Cl)Cl) came to 0.95.
Take `CC1=N/C(=C\c2ccc(C#N)c(N(C)C)c2)C(=O)N1C`: the photoluminescence quantum yield was 0.07 (in C1CCOC1), 0.02 (in CC#N) and 0.41 (in CCCCCC).
